Tested on: Mouse Oocytes
Assay: Microinjection of antisense/sense oligonucleotides into mouse oocytes; FF-MAS-triggered resumption of meiosis (GVBD)
Assay type: cell-based
Conditions: 10 μM FF-MAS (24 hours); added 20 hours after injection of approx. 12 pg of each oligonucleotide; hypoxanthine containing medium
Text: Two antisense oligonucleotides (20 nucleotides) were utilized for microinjection: 5′-[…]-3′ and 5′-[…]-3′, complementary to the kozak sequence of the mRNA encoded by the cDNA sequence herein designated SAM1a and SAM1b, respectively, both of which are defined in SEQ ID NO: 1 and SEQ ID NO: 3, respectively, shown below. In control experiments, the corresponding sense oligonucleotides were microinjected: 5′-[…]-3′ and 5′-[…]-3′ for mRNA SAM1a and SAM1b, respectively. SAM1a antisense was co-injected with SAM1b antisense from a stock solution containing 1.25 μg/μl of each nucleotide in 10% human serum albumin (hereinafter designated HSA) plus 5 mM Tris (pH value: 7.5). SAM1a sense was co-injected with SAM1b sense from a stock solution containing 1.25 μg/μl of each nucleotide in 10% HSA plus 5 mM Tris (pH value: 7.5). Approximately 12 pg of each oligonucleotide ([…]) were injected into the cytoplasma of individual germinal vesicle (GV)-stage oocytes loaded in a droplet of alpha-MEM supplemented with 0.8% HSA and 3 mM hypoxantine under mineral oil in a 35 mm petri dish on the stage of an inverted microscope. […] The effect of FF-MAS was evaluated after 24 hours of further incubation as the number of oocytes in germinal vesicle breakdown (hereinafter designated GVBD). […]

Q: How did the “GVBD/GVBD + GV” value turn out when `CC(C)=CCC[C@@H](C)[C@H]1CC=C2C3=C(CC[C@@]21C)[C@@]1(C)CC[C@H](O)C(C)(C)[C@@H]1CC3` [FF-MAS, 4,4-dimethyl-5α-cholesta-8,14,24-triene-3β-ol] was run?
A: 26/29

Source: patent publication US20060035314A1, “Receptors and signalling proteins capable of binding meiotic acting sterols (MAS)” (priority 2000, published 2006)
